In PubChem BioAssay (NCI):
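Compound exposure: 48 hours, 5 concentrations, 96-well plates. TGI is the concentration that stops growth completely.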

Assays:
Test in all cases: NCI-60 cell line screen, 48 h
T-47D breast = tested on: T-47D breast
IGROV1 ovarian = tested on: IGROV1 ovarian
RPMI-8226 leukemia = tested on: RPMI-8226 leukemia
U251 CNS = tested on: U251 CNS
CAKI-1 renal = tested on: CAKI-1 renal
COLO 205 colon = tested on: COLO 205 colon
TK-10 renal = tested on: TK-10 renal
HS 578T breast = tested on: HS 578T breast
NCI/ADR-RES ovarian = tested on: NCI/ADR-RES ovarian
HL-60(TB) leukemia = tested on: HL-60(TB) leukemia
DU-145 prostate = tested on: DU-145 prostate
SF-295 CNS = tested on: SF-295 CNS
SNB-19 CNS = tested on: SNB-19 CNS
OVCAR-5 ovarian = tested on: OVCAR-5 ovarian
BT-549 breast = tested on: BT-549 breast
EKVX NSCLC = tested on: EKVX NSCLC
UACC-62 melanoma = tested on: UACC-62 melanoma
K-562 leukemia = tested on: K-562 leukemia
LOX IMVI melanoma = tested on: LOX IMVI melanoma
HCT-15 colon = tested on: HCT-15 colon
ACHN renal = tested on: ACHN renal
SR leukemia = tested on: SR leukemia
SK-MEL-5 melanoma = tested on: SK-MEL-5 melanoma
MCF7 breast = tested on: MCF7 breast
RXF 393 renal = tested on: RXF 393 renal
PC-3 prostate = tested on: PC-3 prostate
SK-MEL-28 melanoma = tested on: SK-MEL-28 melanoma
MDA-MB-435 = tested on: MDA-MB-435
MALME-3M melanoma = tested on: MALME-3M melanoma
SN12C renal = tested on: SN12C renal
SF-539 CNS = tested on: SF-539 CNS
A549 NSCLC = tested on: A549 NSCLC
OVCAR-4 ovarian = tested on: OVCAR-4 ovarian
MDA-MB-231 breast = tested on: MDA-MB-231 breast
NCI-H460 lung = tested on: NCI-H460 lung
SNB-75 CNS = tested on: SNB-75 CNS
786-0 renal = tested on: 786-0 renal
SK-MEL-2 melanoma = tested on: SK-MEL-2 melanoma
HCT-116 colon = tested on: HCT-116 colon
HT29 colon = tested on: HT29 colon
CCRF-CEM leukemia = tested on: CCRF-CEM leukemia
MDA-N = tested on: MDA-N
M14 melanoma = tested on: M14 melanoma
HCC-2998 colon = tested on: HCC-2998 colon
HOP-92 NSCLC = tested on: HOP-92 NSCLC
UACC-257 melanoma = tested on: UACC-257 melanoma
SK-OV-3 ovarian = tested on: SK-OV-3 ovarian
HOP-62 NSCLC = tested on: HOP-62 NSCLC
UO-31 renal = tested on: UO-31 renal
SF-268 CNS = tested on: SF-268 CNS
OVCAR-3 ovarian = tested on: OVCAR-3 ovarian
NCI-H23 lung = tested on: NCI-H23 lung
KM12 colon = tested on: KM12 colon
SW-620 colon = tested on: SW-620 colon
A498 renal = tested on: A498 renal
MOLT-4 leukemia = tested on: MOLT-4 leukemia
NCI-H522 lung = tested on: NCI-H522 lung
OVCAR-8 ovarian = tested on: OVCAR-8 ovarian
NCI-H226 lung = tested on: NCI-H226 lung

## NC(Cc1ccc2nc3c4ccccc4c(=O)cc-3oc2c1)C(=O)O (configuration not stated)
T-47D breast
  TGI: > 100 µM
IGROV1 ovarian
  TGI: > 100 µM
RPMI-8226 leukemia
  TGI: > 100 µM
U251 CNS
  TGI: > 100 µM
CAKI-1 renal
  TGI: > 100 µM
COLO 205 colon
  TGI: > 100 µM
TK-10 renal
  TGI: > 100 µM
HS 578T breast
  TGI: > 100 µM
NCI/ADR-RES ovarian
  TGI: > 100 µM
HL-60(TB) leukemia
  TGI: > 100 µM
DU-145 prostate
  TGI: > 100 µM
SF-295 CNS
  TGI: > 100 µM
SNB-19 CNS
  TGI: > 100 µM
OVCAR-5 ovarian
  TGI: > 100 µM
BT-549 breast
  TGI: > 100 µM
EKVX NSCLC
  TGI: > 100 µM
UACC-62 melanoma
  TGI: > 100 µM
K-562 leukemia
  TGI: > 100 µM
LOX IMVI melanoma
  TGI: > 100 µM
HCT-15 colon
  TGI: > 100 µM
ACHN renal
  TGI: > 100 µM
SR leukemia
  TGI: > 100 µM
SK-MEL-5 melanoma
  TGI: 34.6 µM
MCF7 breast
  TGI: 41.4 µM
RXF 393 renal
  TGI: > 100 µM
PC-3 prostate
  TGI: > 100 µM
SK-MEL-28 melanoma
  TGI: > 100 µM
MDA-MB-435
  TGI: 32.3 µM
MALME-3M melanoma
  TGI: 36.8 µM
SN12C renal
  TGI: > 100 µM
SF-539 CNS
  TGI: > 100 µM
A549 NSCLC
  TGI: > 100 µM
OVCAR-4 ovarian
  TGI: > 100 µM
MDA-MB-231 breast
  TGI: > 100 µM
NCI-H460 lung
  TGI: > 100 µM
SNB-75 CNS
  TGI: > 100 µM
786-0 renal
  TGI: > 100 µM
SK-MEL-2 melanoma
  TGI: > 100 µM
HCT-116 colon
  TGI: > 100 µM
HT29 colon
  TGI: > 100 µM
CCRF-CEM leukemia
  TGI: > 100 µM
MDA-N
  TGI: 29.4 µM
M14 melanoma
  TGI: > 100 µM
HCC-2998 colon
  TGI: > 100 µM
HOP-92 NSCLC
  TGI: > 100 µM
UACC-257 melanoma
  TGI: > 100 µM
SK-OV-3 ovarian
  TGI: > 100 µM
HOP-62 NSCLC
  TGI: > 100 µM
UO-31 renal
  TGI: > 100 µM
SF-268 CNS
  TGI: > 100 µM
OVCAR-3 ovarian
  TGI: > 100 µM
NCI-H23 lung
  TGI: 65.1 µM
KM12 colon
  TGI: > 100 µM
SW-620 colon
  TGI: > 100 µM

## CC(=O)Nc1n[n+]([O-])c2cc(C)ccc2[n+]1[O-]
T-47D breast
  TGI: 11.4 µM
IGROV1 ovarian
  TGI: 5.33 µM
RPMI-8226 leukemia
  TGI: > 100 µM
U251 CNS
  TGI: 14.2 µM
CAKI-1 renal
  TGI: 12 µM
COLO 205 colon
  TGI: 8.48 µM
TK-10 renal
  TGI: 58.1 µM
HS 578T breast
  TGI: 40.7 µM
NCI/ADR-RES ovarian
  TGI: > 44.7 µM
A498 renal
  TGI: 19.4 µM
DU-145 prostate
  TGI: 18.4 µM
SF-295 CNS
  TGI: 12.6 µM
SNB-19 CNS
  TGI: 23.3 µM
OVCAR-5 ovarian
  TGI: 33.5 µM
BT-549 breast
  TGI: 14.2 µM
EKVX NSCLC
  TGI: 16.8 µM
UACC-62 melanoma
  TGI: 6.04 µM
K-562 leukemia
  TGI: > 49.3 µM
MOLT-4 leukemia
  TGI: > 100 µM
LOX IMVI melanoma
  TGI: 11.5 µM
HCT-15 colon
  TGI: 14.9 µM
ACHN renal
  TGI: 11.2 µM
SR leukemia
  TGI: > 100 µM
SK-MEL-5 melanoma
  TGI: 3.87 µM
MCF7 breast
  TGI: 3.66 µM
NCI-H522 lung
  TGI: 5.53 µM
OVCAR-8 ovarian
  TGI: 16.3 µM
RXF 393 renal
  TGI: 22.6 µM
PC-3 prostate
  TGI: 14.8 µM
SK-MEL-28 melanoma
  TGI: 44.2 µM
MDA-MB-435
  TGI: 20.8 µM
MALME-3M melanoma
  TGI: 18.5 µM
SN12C renal
  TGI: 18.8 µM
SF-539 CNS
  TGI: 5.36 µM
A549 NSCLC
  TGI: 12.3 µM
OVCAR-4 ovarian
  TGI: 18 µM
MDA-MB-231 breast
  TGI: 23.4 µM
NCI-H460 lung
  TGI: 2.14 µM
SNB-75 CNS
  TGI: 12 µM
786-0 renal
  TGI: 17.5 µM
SK-MEL-2 melanoma
  TGI: 26.5 µM
HCT-116 colon
  TGI: 13.5 µM
HT29 colon
  TGI: 13.4 µM
CCRF-CEM leukemia
  TGI: > 47.4 µM
MDA-N
  TGI: 14.9 µM
M14 melanoma
  TGI: 8.3 µM
NCI-H226 lung
  TGI: 27.8 µM
HCC-2998 colon
  TGI: 71 µM
HOP-92 NSCLC
  TGI: 7.29 µM
UACC-257 melanoma
  TGI: 18.7 µM
SK-OV-3 ovarian
  TGI: 20.3 µM
HOP-62 NSCLC
  TGI: 11.4 µM
UO-31 renal
  TGI: 17.2 µM
SF-268 CNS
  TGI: 19.7 µM
OVCAR-3 ovarian
  TGI: 7.77 µM
NCI-H23 lung
  TGI: 9.32 µM
KM12 colon
  TGI: 11.3 µM
SW-620 colon
  TGI: 17.5 µM
